Reference: patent US5922554A, “Inhibition of cellular uptake of cholesterol” (The Regents of the University of California, priority 1996, dated 1999)

Tests used:
[1] = tested on: vesicular transport; conditions: Tageya et al.; cited from earlier work
[2] = tested on: fibroblast monolayers; assay: Distribution of cell-associated LDL ^3 H-FC label by release with unlabeled lipoproteins/plasma; type: cell-based, human; conditions: 2 mM NEM; 10 min, 37° C. with 80% v/v plasma-PBS; control 0.57 ± 0.03
Protocol: Label released by unlabeled LDL (open circles); label released by unlabeled HDL but not unlabeled LDL (closed triangles) and label released with neither LDL or HDL (closed circles) expressed as percent of total label released. LDL specific activity was […]. All fractions are defined in terms of label released by either unlabeled lipoprotein within 5 min of incubation at 37° C.
Cell monolayers equilibrated with 7% plasma-DMEM were first incubated with ^3 H-FC labeled LDL as described above. At intervals, dishes of cells were washed, then incubated with unlabeled LDL or HDL at their plasma concentrations. A fraction of cell-associated label was rapidly released; maximum recovery in the medium occurred within 10 min at 37° C. In FIG. 4, the proportions of cell label which were LDL-releasable, LDL-resistant but HDL-releasable, and resistant to both LDL and HDL are shown as a function of time.
^b Proportion of cell cholesterol label retained in the cells

For `CCN1C(=O)C=CC1=O` [N-ethylmaleimide], the “concentration for maximal inhibition in assays of vesicular transport in vitro” value [1] is listed as 1 mM and the “Lipoprotein-resistant label (proportion of cell cholesterol label retained)” value [2] is listed as 0.24 ± 0.03.
